Where two headings read alike, the source gives them in different places. One block for each compound: values may come before it. Where a SMILES comes first, the peptide text is derived from it. Bridges are numbered along the chain shown (N, C = ends). [ ]: non-standard residue; d: D form. The star is where a group is joined. X2 = O=C(O)c1cc(C(=O)*)ccc1-c1c2ccc(=O)cc-2oc2cc(O)ccc12; PEG12 = NCCOCCOCCOCCOCCOCCOCCOCCOCCOCCOCCOCCOCCC(=O)O; NMePhe(3-Cl) = CN[C@@H](Cc1cccc(Cl)c1)C(=O)O; NMeW = CN[C@@H](Cc1c[nH]c2ccccc12)C(=O)O; Lys(N3) = [N-]=[N+]=NCCCC[C@H](N)C(=O)O; Phe(4-F) = N[C@@H](Cc1ccc(F)cc1)C(=O)O; NMeY = CN[C@@H](Cc1ccc(O)cc1)C(=O)O; NMeF = CN[C@@H](Cc1ccccc1)C(=O)O; Ahp(2) = CCCCC[C@H](N)C(=O)O; Abu = CC[C@H](N)C(=O)O
Molecular target: transferrin receptor (hTfR) (Homo sapiens, UniProt P02786)
Sequence (P02786 whole entry): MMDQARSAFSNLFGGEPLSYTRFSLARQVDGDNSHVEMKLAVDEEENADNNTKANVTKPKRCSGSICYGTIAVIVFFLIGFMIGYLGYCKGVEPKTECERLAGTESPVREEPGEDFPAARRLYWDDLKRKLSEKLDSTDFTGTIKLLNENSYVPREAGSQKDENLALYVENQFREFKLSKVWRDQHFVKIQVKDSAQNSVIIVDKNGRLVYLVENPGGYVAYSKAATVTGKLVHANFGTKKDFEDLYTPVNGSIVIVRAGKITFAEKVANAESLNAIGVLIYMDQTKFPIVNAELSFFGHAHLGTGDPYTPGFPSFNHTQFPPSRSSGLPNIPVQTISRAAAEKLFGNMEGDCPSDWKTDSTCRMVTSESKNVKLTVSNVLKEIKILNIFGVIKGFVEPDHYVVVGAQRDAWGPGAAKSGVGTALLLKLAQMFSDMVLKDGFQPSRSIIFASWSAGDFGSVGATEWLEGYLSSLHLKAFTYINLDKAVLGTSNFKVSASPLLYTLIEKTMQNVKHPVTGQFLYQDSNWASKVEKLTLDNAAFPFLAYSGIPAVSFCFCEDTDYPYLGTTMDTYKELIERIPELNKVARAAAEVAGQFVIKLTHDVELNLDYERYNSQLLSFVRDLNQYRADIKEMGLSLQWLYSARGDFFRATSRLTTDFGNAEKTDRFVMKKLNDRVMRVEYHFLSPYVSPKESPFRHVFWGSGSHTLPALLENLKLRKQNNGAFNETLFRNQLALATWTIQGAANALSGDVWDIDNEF
Assay: Intermolecular interaction evaluation test between transferrin receptor (hTfR) and peptide by surface plasmon resonance (SPR)
Type: binding
How it was run: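 Receptor was Ni-captured and EDC/NHS-fixed on an NTA chip; running buffer HEPES pH 8.0 with NaCl, Tween 20, BSA and 1.0% DMSO.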

[1] = surface plasmon resonance, peptide vs hTfR, read-out: KD value, hTfR binding by SPR (class symbol)
[2] = surface plasmon resonance, hTfR, read-out: KD value for hTfR by SPR (class symbol)
[3] = SPR, hTfR No. 894 variants with PEG12c linker (Table 2), read-out: KD

Compound: CC[C@H](C)[C@@H]1NC(=O)[C@H](Cc2ccc(O)cc2)NC(=O)[C@H](Cc2ccc(O)cc2)NC(=O)[C@H](CC(N)=O)NC(=O)[C@H](Cc2c[nH]c3ccccc23)NC(=O)[C@H](C(C)C)NC(=O)[C@H](Cc2ccccc2)NC(=O)[C@H](C(C)C)NC(=O)[C@H](CCC(=O)O)NC(=O)CSC[C@@H](C(=O)NCCOCCOCCOCCOCCOCCOCCOCCOCCOCCOCCOCCOCCC(=O)NN)NC(=O)[C@H](Cc2ccc(O)cc2)N(C)C(=O)[C@H](Cc2ccc(O)cc2)NC(=O)[C@H](CCCNC(=N)N)NC(=O)[C@H](CCCNC(=N)N)NC(=O)[C@H]([C@@H](C)CC)NC1=O [compound 218]
Kd (SPR, peptides, linker-added peptides and FITC conjugates, Patent ID 203-230, read-out: KD): 1 to 100 nM

Compound: CC[C@H](C)[C@@H]1NC(=O)[C@H](Cc2ccc(OC)cc2)NC(=O)[C@H](Cc2ccc(O)cc2)NC(=O)[C@H](CC(N)=O)NC(=O)[C@H](Cc2c[nH]c3ccccc23)N(C)C(=O)[C@H](C(C)C)NC(=O)[C@H](Cc2cccc(Cl)c2)N(C)C(=O)[C@H](C(C)C)NC(=O)[C@H](C)NC(=O)CSC[C@@H](C(=O)NCC(=O)NCC(=O)NCC(=O)NCC(=O)N[C@@H](CO)C(=O)N[C@@H](CO)C(=O)N[C@@H](CS)C(N)=O)NC(=O)[C@H](Cc2ccc(O)cc2)N(C)C(=O)[C@H](Cc2ccccc2)NC(=O)[C@@H](CCCNC(=N)N)NC(=O)[C@H](CCCCCN)NC(=O)[C@H]([C@@H](C)CC)NC1=O [compound 370]
Kd: 1 to 100 nM

Compound: CC[C@H](C)[C@@H]1NC(=O)[C@H](Cc2ccc(O)cc2)NC(=O)[C@H](Cc2ccc(O)cc2)NC(=O)[C@H](CC(N)=O)NC(=O)[C@H](Cc2c[nH]c3ccccc23)N(C)C(=O)[C@H](C(C)C)NC(=O)[C@H](Cc2cccc(Cl)c2)N(C)C(=O)[C@@H]2CCCC(=O)NCCCCC[C@H](NC(=O)[C@H]([C@@H](C)CC)NC1=O)C(=O)N[C@@H](CCCNC(=N)N)C(=O)N[C@@H](Cc1ccc(O)cc1)C(=O)N(C)[C@@H](Cc1ccc(O)cc1)C(=O)N[C@H](C(N)=O)CSCC(=O)N[C@@H](C)C(=O)N2 [compound 410]
Kd [2]: 1 to 100 nM

Compound: CC[C@H](C)[C@@H]1NC(=O)[C@H](CCCNC(=N)N)NC(=O)[C@H](CC(N)=O)NC(=O)[C@H](C)NC(=O)CSC[C@@H](C(=O)NCCOCCOCCOCCOCCOCCOCCOCCOCCOCCOCCOCCOCCC(=O)N[C@@H](CCCCNC(=O)c2ccc(-c3c4ccc(=O)cc-4oc4cc(O)ccc34)c(C(=O)O)c2)C(N)=O)NC(=O)[C@H](Cc2ccc(O)cc2)N(C)C(=O)[C@H](CCCNC(=N)N)NC(=O)[C@@H]2CCCN2C(=O)[C@H]([C@@H](C)CC)NC(=O)[C@H]([C@@H](C)CC)NC(=O)[C@H](Cc2ccc(O)cc2)NC(=O)[C@H](Cc2ccc(O)cc2)NC(=O)[C@H](CC(N)=O)NC(=O)[C@H](Cc2c[nH]c3ccccc23)NC(=O)[C@H](C(C)C)NC(=O)[C@H](Cc2ccccc2)NC(=O)[C@H](C(C)C)NC1=O [compound 153] ({CH2CO}-ANRIVFVWNYYIIPR[NMeY]C[PEG12]K(X2)-NH2; thioether N-17)
Kd (SPR, linker and payload (FITC, VivoTag) conjugates, read-out: KD): 1 to 100 nM

Compound: CCCCC[C@@H]1NC(=O)[C@H](Cc2ccc(O)cc2)NC(=O)[C@H](CC(N)=O)NC(=O)[C@H](Cc2c[nH]c3ccccc23)NC(=O)[C@H](C(C)C)NC(=O)[C@H](Cc2ccccc2)N(C)C(=O)[C@H](C(C)C)NC(=O)[C@H](C)NC(=O)CSC[C@@H](C(=O)NCCOCCOCCOCCOCCOCCOCCOCCOCCOCCOCCOCCOCCC(N)=O)NC(=O)[C@H](Cc2ccc(O)cc2)N(C)C(=O)[C@H](Cc2ccc(O)cc2)NC(=O)[C@H](CCCNC(=N)N)NC(=O)[C@H](CCCNC(=N)N)NC(=O)[C@H]([C@@H](C)CC)NC(=O)[C@H]([C@@H](C)CC)NC1=O [compound 139] ({CH2CO}-AV[NMeF]VWNY[Ahp(2)]IIRRY[NMeY]C[PEG12]-NH2; thioether N-15)
Kd [3]: 1 to 100 nM

Compound: CC[C@@H]1NC(=O)CSC[C@@H](C(=O)NCCOCCOCCOCCOCCOCCOCCOCCOCCOCCOCCOCCOCCC(N)=O)NC(=O)[C@H](Cc2ccc(O)cc2)N(C)C(=O)[C@H](Cc2ccc(O)cc2)NC(=O)[C@H](CCCNC(=N)N)NC(=O)[C@H](CCCNC(=N)N)NC(=O)[C@H]([C@@H](C)CC)NC(=O)[C@H]([C@@H](C)CC)NC(=O)[C@H](Cc2ccc(O)cc2)NC(=O)[C@H](Cc2ccc(O)cc2)NC(=O)[C@H](CC(N)=O)NC(=O)[C@H](Cc2c[nH]c3ccccc23)NC(=O)[C@H](C(C)C)NC(=O)[C@H](Cc2ccccc2)N(C)C(=O)[C@H](C(C)C)NC1=O [compound 111] ({CH2CO}-[Abu]V[NMeF]VWNYYIIRRY[NMeY]C[PEG12]-NH2; thioether N-15)
Kd [3]: 1 to 100 nM

Compound: CC[C@H](C)[C@@H]1NC(=O)[C@H](Cc2ccc(O)cc2)NC(=O)[C@H](Cc2ccc(O)cc2)NC(=O)[C@H](CC(N)=O)NC(=O)[C@H](Cc2ccc(F)cc2)NC(=O)[C@H](C(C)C)NC(=O)[C@H](Cc2ccccc2)N(C)C(=O)[C@H](C(C)C)NC(=O)[C@H](C)NC(=O)CSC[C@@H](C(=O)NCCOCCOCCOCCOCCOCCOCCOCCOCCOCCOCCOCCOCCC(N)=O)NC(=O)[C@H](Cc2ccc(O)cc2)N(C)C(=O)[C@H](Cc2ccc(O)cc2)NC(=O)[C@H](CCCNC(=N)N)NC(=O)[C@H](CCCNC(=N)N)NC(=O)[C@H]([C@@H](C)CC)NC1=O [compound 119] ({CH2CO}-AV[NMeF]V[Phe(4-F)]NYYIIRRY[NMeY]C[PEG12]-NH2; thioether N-15)
Kd [3]: 1 to 100 nM

Results, then the compound that gave them:

Kd [1]: 1 to 100 nM
Compound: CC[C@H](C)[C@@H]1NC(=O)[C@H](Cc2ccc(OC)cc2)NC(=O)[C@H](Cc2ccc(O)cc2)NC(=O)[C@H](CC(N)=O)NC(=O)[C@H](Cc2c[nH]c3ccccc23)N(C)C(=O)[C@H](C(C)C)NC(=O)[C@H](Cc2cccc(Cl)c2)N(C)C(=O)[C@H](C(C)C)NC(=O)[C@H](C)NC(=O)CSC[C@@H](C(N)=O)NC(=O)[C@H](Cc2ccc(O)cc2)N(C)C(=O)[C@H](Cc2ccccc2)NC(=O)[C@@H](CCCNC(=N)N)NC(=O)[C@H](CCCNC(=N)N)NC(=O)[C@H](CCC(=O)N[C@H](CCC(=O)O)C(=O)O)NC1=O [compound 347] ({CH2CO}-AV[NMePhe(3-Cl)]V[NMeW]NYY(Me)IE(dE)R[dR]F[NMeY]C-NH2; thioether N-15)

Kd [1]: 1 to 100 nM
Compound: CC[C@H](C)[C@@H]1NC(=O)[C@H](Cc2ccc(OC)cc2)NC(=O)[C@H](Cc2ccc(O)cc2)NC(=O)[C@H](CC(N)=O)NC(=O)[C@H](Cc2c[nH]c3ccccc23)N(C)C(=O)[C@H](C(C)C)NC(=O)[C@H](Cc2cccc(Cl)c2)N(C)C(=O)[C@H](C(C)C)NC(=O)[C@H](C)NC(=O)CSC[C@@H](C(=O)NCC(=O)NCC(=O)NCC(=O)NCC(=O)N[C@@H](CO)C(=O)N[C@@H](CO)C(=O)N[C@@H](CS)C(N)=O)NC(=O)[C@H](Cc2ccc(O)cc2)N(C)C(=O)[C@H](Cc2ccccc2)NC(=O)[C@@H](CCCNC(=N)N)NC(=O)[C@H](CCCNC(=N)N)NC(=O)[C@H](CCC(=O)O)NC1=O [compound 342]

Kd [1]: 1 to 100 nM
Compound: CC[C@H](C)[C@@H]1NC(=O)[C@H](Cc2ccc(O)cc2)NC(=O)[C@H](Cc2ccc(O)cc2)NC(=O)[C@H](CC(N)=O)NC(=O)[C@H](Cc2c[nH]c3ccccc23)N(C)C(=O)[C@H](C(C)C)NC(=O)[C@H](Cc2ccccc2)N(C)C(=O)[C@H](C(C)C)NC(=O)[C@H](C)NC(=O)CSC[C@@H](C(N)=O)NC(=O)[C@H](Cc2ccc(O)cc2)N(C)C(=O)[C@H](Cc2ccc(O)cc2)NC(=O)[C@H](CCCNC(=N)N)NC(=O)[C@H](CCCCN)NC(=O)[C@H]([C@@H](C)CC)NC1=O [compound 300]

Kd [2]: 1 to 100 nM
Compound: CC[C@H](C)[C@@H]1NC(=O)[C@H](Cc2ccc(OC)cc2)NC(=O)[C@H](Cc2ccc(O)cc2)NC(=O)[C@H](CC(N)=O)NC(=O)[C@H](Cc2c[nH]c3ccccc23)N(C)C(=O)[C@H](C(C)C)NC(=O)[C@H](Cc2cccc(Cl)c2)N(C)C(=O)[C@H](C(C)C)NC(=O)[C@H](C)NC(=O)CSC[C@@H](C(=O)NCC(=O)N[C@@H](CCCCN=[N+]=[N-])C(N)=O)NC(=O)[C@H](Cc2ccc(O)cc2)N(C)C(=O)[C@H](Cc2ccccc2)NC(=O)[C@@H](CCCNC(=N)N)NC(=O)[C@H](CCCNC(=N)N)NC(=O)[C@H]([C@@H](C)CC)NC1=O [compound 405] ({CH2CO}-AV[NMePhe(3-Cl)]V[NMeW]NYY(Me)IIR[dR]F[NMeY]CG[Lys(N3)]-NH2; thioether N-15)

Kd [2]: 1 to 100 nM
Compound: CC[C@H](C)[C@@H]1NC(=O)[C@H](Cc2ccc(OC)cc2)NC(=O)[C@H](Cc2ccc(O)cc2)NC(=O)[C@H](CC(N)=O)NC(=O)[C@H](Cc2c[nH]c3ccccc23)N(C)C(=O)[C@H](C(C)C)NC(=O)[C@H](Cc2cccc(Cl)c2)N(C)C(=O)[C@H](C(C)C)NC(=O)[C@H](C)NC(=O)CSC[C@@H](C(=O)NCCOCCOCCOCCOCCC(N)=O)NC(=O)[C@H](Cc2ccc(O)cc2)NC(=O)[C@H](Cc2ccccc2)NC(=O)[C@@H](CCCNC(=N)N)NC(=O)C(C)(C)NC(=O)[C@H]([C@@H](C)CC)NC1=O [compound 352]

Kd [1]: 1 to 100 nM
Compound: CC[C@H](C)[C@@H]1NC(=O)[C@H](Cc2ccc(OC)cc2)NC(=O)[C@H](Cc2ccc(O)cc2)NC(=O)[C@H](CC(N)=O)NC(=O)[C@H](Cc2c[nH]c3ccccc23)N(C)C(=O)[C@H](C(C)C)NC(=O)[C@H](Cc2cccc(Cl)c2)N(C)C(=O)[C@H](C(C)C)NC(=O)[C@H](C)NC(=O)CSC[C@@H](C(=O)NCCOCCOCCOCCOCCC(N)=O)NC(=O)[C@H](Cc2ccc(O)cc2)N(C)C(=O)[C@H](Cc2ccccc2)NC(=O)[C@@H](CCCNC(=N)N)NC(=O)[C@H](CCCNC(=N)N)NC(=O)[C@H]([C@@H](C)O)NC1=O [compound 331]

Kd [2]: 100 to 1000 nM
Compound: CC[C@H](C)[C@@H]1NC(=O)[C@H](Cc2ccc(OC)cc2)NC(=O)[C@H](Cc2ccc(O)cc2)NC(=O)[C@H](CC(N)=O)NC(=O)[C@H](Cc2c[nH]c3ccccc23)N(C)C(=O)[C@H](C(C)C)NC(=O)[C@H](Cc2cccc(Cl)c2)N(C)C(=O)[C@H](C(C)C)NC(=O)[C@H](C)NC(=O)CSC[C@@H](C(N)=O)NC(=O)[C@H](Cc2ccc(O)cc2)N(C)C(=O)[C@H](Cc2ccccc2)NC(=O)[C@@H](C)NC(=O)[C@H](CCCNC(=N)N)N(C)C(=O)[C@H]([C@@H](C)CC)NC1=O [compound 383]

— patent publication US20230203098A1, “HUMAN TRANSFERRIN RECEPTOR BINDING PEPTIDE” (priority 2020, published 2023)
